Measured values taken from patent US4883800A, “Quinazoline derivatives and process for their production” (Fujisawa Pharmaceutical Co., Ltd., priority 1985, dated 1989).
pIC50: −log10 of the molar value.

How the values were obtained:
aldose reductase = molecular target: T1, aldose reductase (Oryctolagus cuniculus, UniProt P15122); test: Enzymatic assay method: aldose reductase inhibition (in vitro test); assay type: biochemical; settings: rabbit lens enzyme; D,L-glyceraldehyde, NADPH; 35° C., 2 minutes; pH 6.2 buffer; read-out: IC50: concentration at which 50% of the aldose reductase activity is inhibited
T1 construct: The supernatant was dialyzed against 2 liters of 0.05M of saline solution and the dialyzed solution was used as the enzyme solution; from tissue; host or cells: rabbit eye lens, 10,000 G supernatant of homogenate, dialyzed
Protocol: (1) Enzymatic assay method:
0.5 M Phosphate buffer (pH 6.2)
2.0 M Lithium sulfate 0.2 ml
The compound of this invention mentioned
(dissolved in physiological saline
Enzyme solution [aldose reductase solution,
prepared as described below (2)]
60 mM D,L-glyceraldehyde 0.05 ml
2.5 mM Nicotinamide adenine
dinucleotide phosphate (reduced form)
The above reactants were mixed and reacted at 35° C. for 2 minutes and the decrease in amount of NADPH was measured with an Automatic Reaction Rate Analyzer Model LKB-8600 (Trademark, made by LKB Producter A.B.). The enzyme activity at a change in absorbance of 0.001 per minute was taken as unity.
(2) Method for preparing an enzyme solution
Rabbit eyes were enucleated and the lenses were collected. The lenses were homogenized with 3 volumes of distilled water at 4° C. (All the subsequent procedures were also performed at 4° C.) and centrifuged at 10,000 G for 60 minutes. The supernatant was dialyzed against 2 liters of 0.05M of saline solution and the dialyzed solution was used as the enzyme solution.
Each IC50 value (M) represents the concentration of the compounds of this invention at which 50% of the aldose reductase activity is inhibited.

[1] = tested on: sorbitol accumulation in sciatic nerve; test: Inhibitory effect of drug on sorbitol accumulation in sciatic nerve (in vivo test); parameters: species or system Male Sprague-Dawley rats (streptozotocin-induced diabetic); settings: 32 mg/kg, oral, once a day for five days; 6 hours after final administration; streptozotocin-diabetic rats
Protocol: Inhibitory effect of drug on sorbitol accumulation in sciatic nerve:
Male Sprague-Dawley rats (6 weeks old) were fasted for 24 hours and then made diabetic by the intraperitoneal injection (2 ml/kg) of streptozotocin (75 mg/kg) dissolved in 2 mM citrate buffer (pH 4.5).
Seven days after streptozotocin injection, blood glucose value was measured by taking blood from tail vein. Rats with blood glucose value of >300 mg/dl were used as streptozotocin-induced diabetic animals.
Diabetic animals were divided at random into two groups (group (A) and group (B)).
Drug was suspended in 0.5% aqueous methylcellulose solution and orally administered to each rat in group (A) once a day for five days [hereinafter referred to as drug-treated diabetic rats].
Each of rats in group (B) and of normal rats was given the vehicle (0.5% aqueous methylcellulose solution) [hereinafter referred to as untreated diabetic rats and control rats, respectively].
Six hours after final administration of drug or vehicle, animals were killed and sorbitol content in sciatic nerve was assayed. Inhibitory percent of drug on sorbitol accumulation in sciatic nerve was calculated as follows. [formula]
S: Sorbitol content in sciatic nerve of untreated diabetic rats.
SD : Sorbitol content in sciatic nerve of drug-treated diabetic rats.
N: Sorbitol content in sciatic nerve of control rats.

Compound | pIC50 (aldose reductase) | I: Inhibitory percent on sorbitol accumulation in sciatic nerve [1]
O=C(O)Cn1c(=O)n(Cc2ccc(Br)cc2F)c(=O)c2ccc(Cl)cc21 [Compound F, 2-[3-(4-Bromo-2-fluorobenzyl)-7-chloro-1,2,3,4-tetrahydro-2,4-dioxoquinazolin-1-yl]acetic acid] | – | 99%
O=C(O)Cn1c(=O)n(Cc2ccc(Cl)c(Cl)c2)c(=O)c2ccccc21 [Compound A, 2-[3-(3,4-Dichlorobenzyl)-1,2,3,4-tetrahydro-2,4-dioxoquinazolin-1-yl]acetic acid] | 8.27 | –
COc1ccc2c(=O)n(Cc3ccc(Br)cc3F)c(=O)n(CC(=O)O)c2c1 [Compound C, 2-[3-(4-Bromo-2-fluorobenzyl)-1,2,3,4-tetrahydro-7-methoxy-2,4-dioxoquinazolin-1-yl]acetic acid] | 8.27 | –

Continued, in another order:

pIC50 (aldose reductase) | Compound | I: Inhibitory percent on sorbitol accumulation in sciatic nerve [1]
8.51 | O=C(O)Cn1c(=O)n(Cc2ccc(Br)cc2F)c(=O)c2ccc(Br)cc21 [Compound E, 2-[7-Bromo-3-(4-bromo-2-fluorobenzyl)-1,2,3,4-tetrahydro-2,4-dioxoquinazolin-1-yl]acetic acid] | 103%
8.28 | O=C(O)Cn1c(=O)n(Cc2ccc(I)cc2F)c(=O)c2ccccc21 [Compound D, 2-[3-(2-Fluoro-4-iodobenzyl)-1,2,3,4-tetrahydro-2,4-dioxoquinazolin-1-yl]acetic acid] | 101%
8.32 | O=C(O)Cn1c(=O)n(Cc2ccc(Br)cc2F)c(=O)c2ccccc21 [Compound B, 2-[3-(4-Bromo-2-fluorobenzyl)-1,2,3,4-tetrahydro-2,4-dioxoquinazolin-1-yl]acetic acid] | –
